According to patent publication US9409905B2, “Antibacterial compounds and methods for use” (PTC THERAPEUTICS, INC., priority 2011, dated 2016):
Values after ≈ are worked out from the molar mass of the structure shown.

How the values were obtained:
[1] = tested on: Escherichia coli (E. coli) BAS849; assay: Antibacterial activity, microbroth dilution MIC (Table 1); assay type: cell-based; conditions: microbroth dilution, super sensitive Gram-negative E. coli BAS849, read-out: MIC, BAS849
Procedure, shortened: (§1)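 Values are MICs (μg/mL): the smallest drug amount at which macroscopically visible bacterial growth is absent under assay conditions, from a microdilution method in broth.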

[2] = tested on: Staphylococcus aureus (S. aureus) 29213; assay: as above; assay type: cell-based; conditions: microbroth dilution, Gram-positive S. aureus 29213, read-out: MIC, 29213
Procedure, shortened: as §1

E. coli 25922 = assay: as above; assay type: cell-based, Escherichia coli; conditions: Escherichia coli; microbroth dilution; control Gram-negative E. coli 25922 strain; read-out: MIC, 25922
Procedure, shortened: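 Using broth microdilution, MIC endpoints (μg/mL) mark where visible growth no longer appears; the panel spans sensitive and control Gram-negative strains plus a Gram-positive strain.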

E. coli LZ3111 = assay: Antibacterial activity, MIC, quinolone resistant strain (Table 2); assay type: cell-based; conditions: Escherichia coli, LZ3111, read-out: MIC LZ3111
Procedure, shortened: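 Growth inhibition assessed by serial drug dilution in broth; endpoint was absence of macroscopically visible growth, reported as MIC, μg/mL.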

E. coli ELZ4000 = assay: Antibacterial activity, MIC, multi-drug resistant clinical isolate (Table 3); assay type: cell-based; conditions: Escherichia coli, ELZ4000, read-out: MIC ELZ4000
Procedure, shortened: (§2)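 Values derive from a microbroth dilution method, taking as MIC (μg/mL) the lowest tested concentration without macroscopically visible growth.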

E. coli ELZ4251 = assay: as above; assay type: cell-based; conditions: Escherichia coli
Procedure, shortened: as §2

[3] = tested on: Acinetobacter baumannii (A. baumannii) BAA747; assay: Antibacterial activity, MIC (Table 4); assay type: cell-based; conditions: A. baumannii BAA747, read-out: MIC, BAA747
Procedure, shortened: (§3)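 Compounds are serially diluted in microbroth, bacteria are grown under the test conditions, and growth is then inspected macroscopically. The lowest concentration without visible growth is reported as the MIC (μg/mL).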

[4] = tested on: Klebsiella pneumoniae (K. pneumoniae) 35657; assay: Antibacterial activity, MIC (Table 4); assay type: cell-based; conditions: K. pneumoniae 35657, read-out: MIC, 35657
Procedure, shortened: as §3

A. baumannii MXX2240 = assay: Antibacterial activity, MIC, resistant strain (Table 4); assay type: cell-based; conditions: Acinetobacter baumannii, MXX2240; resistant A. baumannii MMX2240, multi-drug resistant clinical isolate; read-out: MIC, MMX2240
Procedure, shortened: as §3

K. pneumoniae MXX1232 = assay: as above; assay type: cell-based; conditions: Klebsiella pneumoniae, MXX1232; resistant K. pneumoniae MMX1232, multi-drug resistant clinical isolate; read-out: MIC, MMX1232
Procedure, shortened: as §3

[5] = tested on: Pseudomonas aeruginosa (P. aeruginosa) 27853; assay: Antibacterial activity, MIC (Table 5); assay type: cell-based; conditions: P. aeruginosa 27853, read-out: MIC, 27853
Procedure, shortened: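 Using a microbroth dilution format, the minimum inhibitory concentration was recorded as the lowest tested concentration that stopped visible bacterial growth, expressed in μg/mL.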

[6] = tested on: Haemophilus influenzae (H. influenzae) 49247; assay: Antibacterial activity, MIC (Table 6); assay type: cell-based
Procedure, shortened: (§4)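 Compounds are serially diluted in microbroth. Bacteria are then grown under the test conditions, and growth is inspected macroscopically. The MIC is recorded in μg/mL as the lowest concentration without visible growth.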

[7] = tested on: Moraxella catarrhalis (M. catarrhalis) 25238; assay: Antibacterial activity, MIC (Table 7); assay type: cell-based
Procedure, shortened: as §4

[8] = tested on: Neisseria meningitidis (N. meningitidis) 13090; assay: Antibacterial activity, MIC (Table 8); assay type: cell-based
Procedure, shortened: as §4

Row | Compound | MIC [1] [µg/mL] | MIC [2] [µg/mL] | MIC (E. coli 25922) [µg/mL] | MIC (E. coli LZ3111) [µg/mL] | MIC (E. coli ELZ4000) [µg/mL] | MIC (E. coli ELZ4251) [µg/mL] | MIC [3] [µg/mL] | MIC [4] [µg/mL] | MIC (A. baumannii MXX2240) [µg/mL] | MIC (K. pneumoniae MXX1232) [µg/mL] | MIC [5] [µg/mL] | MIC [6] [µg/mL] | MIC [7] [µg/mL] | MIC [8] [µg/mL]
1 | CCc1c(-c2ccc3c(c2)cc(CN2CC(N(C)C)C2)n3C)[nH]c(=O)c(C(=O)O)c1O [Cpd 189, 6-(2-((3-(dimethylamino)azetidin-1-yl)methyl)-1-methyl-1H-indol-5-yl)-5-ethyl-4-hydroxy-2-oxo-1,2-dihydropyridine-3-carboxylic acid] | < 1 | 3.5 to 12.5 (≈ 8.24 to 29.4 µM) | 1 to 3.5 (≈ 2.36 to 8.24 µM) | 3.5 to 12.5 (≈ 8.24 to 29.4 µM) | 12.5 to 150 (≈ 29.4 to 353 µM) | 3.5 to 12.5 (≈ 8.24 to 29.4 µM) | 1 to 3.5 (≈ 2.36 to 8.24 µM) | 1 to 3.5 (≈ 2.36 to 8.24 µM) | 12.5 to 150 (≈ 29.4 to 353 µM) | 12.5 to 150 (≈ 29.4 to 353 µM) | 12.5 to 150 (≈ 29.4 to 353 µM) | < 1 | < 1 | < 1
2 | CCc1c(-c2ccc3c(c2)cc(CN2CCCCC2)n3C)[nH]c(=O)c(C(=O)O)c1O [Cpd 192, 5-ethyl-4-hydroxy-6-(1-methyl-2-(piperidin-1-ylmethyl)-1H-indol-5-yl)-2-oxo-1,2-dihydropyridine-3-carboxylic acid] | < 1 | 3.5 to 12.5 (≈ 8.55 to 30.5 µM) | < 1 | 1 to 3.5 (≈ 2.44 to 8.55 µM) | 12.5 to 150 (≈ 30.5 to 366 µM) | 3.5 to 12.5 (≈ 8.55 to 30.5 µM) | 1 to 3.5 (≈ 2.44 to 8.55 µM) | 1 to 3.5 (≈ 2.44 to 8.55 µM) | 1 to 3.5 (≈ 2.44 to 8.55 µM) | 12.5 to 150 (≈ 30.5 to 366 µM) | 12.5 to 150 (≈ 30.5 to 366 µM) | < 1 | < 1 | < 1
3 | CCc1c(-c2ccc3c(c2)cc(CNC(C)(C)C)n3C)[nH]c(=O)c(C(=O)O)c1O [Cpd 193, 6-(2-((tert-butylamino)methyl)-1-methyl-1H-indol-5-yl)-5-ethyl-4-hydroxy-2-oxo-1,2-dihydropyridine-3-carboxylic acid] | < 1 | 3.5 to 12.5 (≈ 8.81 to 31.4 µM) | < 1 | 3.5 to 12.5 (≈ 8.81 to 31.4 µM) | 3.5 to 12.5 (≈ 8.81 to 31.4 µM) | 3.5 to 12.5 (≈ 8.81 to 31.4 µM) | < 1 | < 1 | 1 to 3.5 (≈ 2.52 to 8.81 µM) | 12.5 to 150 (≈ 31.4 to 377 µM) | 3.5 to 12.5 (≈ 8.81 to 31.4 µM) | < 1 | < 1 | < 1
4 | CCc1c(-c2ccc3c(c2)cc(CNC(C)C)n3C)[nH]c(=O)c(C(=O)O)c1O [Cpd 199, 5-ethyl-4-hydroxy-6-(2-((isopropylamino)methyl)-1-methyl-1H-indol-5-yl)-2-oxo-1,2-dihydropyridine-3-carboxylic acid] | < 1 | 3.5 to 12.5 (≈ 9.13 to 32.6 µM) | < 1 | 1 to 3.5 (≈ 2.61 to 9.13 µM) | 3.5 to 12.5 (≈ 9.13 to 32.6 µM) | 3.5 to 12.5 (≈ 9.13 to 32.6 µM) | < 1 | < 1 | 1 to 3.5 (≈ 2.61 to 9.13 µM) | 12.5 to 150 (≈ 32.6 to 391 µM) | 3.5 to 12.5 (≈ 9.13 to 32.6 µM) | < 1 | < 1 | < 1
5 | CCc1c(-c2ccc3c(c2)cc(CN2CCC(N(C)C)C2)n3C)[nH]c(=O)c(C(=O)O)c1O (stereo not drawn) [Cpd 200, 6-(2-((3-(dimethylamino)pyrrolidin-1-yl)methyl)-1-methyl-1H-indol-5-yl)-5-ethyl-4-hydroxy-2-oxo-1,2-dihydropyridine-3-carboxylic acid] | < 1 | 3.5 to 12.5 (≈ 7.98 to 28.5 µM) | 1 to 3.5 (≈ 2.28 to 7.98 µM) | 1 to 3.5 (≈ 2.28 to 7.98 µM) | 12.5 to 150 (≈ 28.5 to 342 µM) | 12.5 to 150 (≈ 28.5 to 342 µM) | 3.5 to 12.5 (≈ 7.98 to 28.5 µM) | 12.5 to 150 (≈ 28.5 to 342 µM) | 12.5 to 150 (≈ 28.5 to 342 µM) | 12.5 to 150 (≈ 28.5 to 342 µM) | 12.5 to 150 (≈ 28.5 to 342 µM) | 1 to 3.5 (≈ 2.28 to 7.98 µM) | 1 to 3.5 (≈ 2.28 to 7.98 µM) | < 1
6 | CCc1c(-c2ccc3c(c2)cc(CNCCF)n3C)[nH]c(=O)c(C(=O)O)c1O [Cpd 201, 5-ethyl-6-(2-((2-fluoroethylamino)methyl)-1-methyl-1H-indol-5-yl)-4-hydroxy-2-oxo-1,2-dihydropyridine-3-carboxylic acid] | < 1 | 3.5 to 12.5 (≈ 9.03 to 32.3 µM) | < 1 | 1 to 3.5 (≈ 2.58 to 9.03 µM) | 3.5 to 12.5 (≈ 9.03 to 32.3 µM) | 3.5 to 12.5 (≈ 9.03 to 32.3 µM) | < 1 | < 1 | 3.5 to 12.5 (≈ 9.03 to 32.3 µM) | 12.5 to 150 (≈ 32.3 to 387 µM) | 3.5 to 12.5 (≈ 9.03 to 32.3 µM) | < 1 | < 1 | < 1
7 | CCc1c(-c2ccc3c(c2)cc(CN(C)C2CCC2)n3C)[nH]c(=O)c(C(=O)O)c1O.Cl [Cpd 209, 6-(2-((cyclobutyl(methyl)amino)methyl)-1-methyl-1H-indol-5-yl)-5-ethyl-4-hydroxy-2-oxo-1,2-dihydropyridine-3-carboxylic acid hydrochloride] | < 1 | 3.5 to 12.5 | < 1 | 3.5 to 12.5 | 12.5 to 150 | 12.5 to 150 | 1 to 3.5 | 1 to 3.5 | 3.5 to 12.5 | 12.5 to 150 | 12.5 to 150 | < 1 | < 1 | < 1
8 | CCc1c(-c2ccc3c(c2)cc(CN(C)CC2CC2)n3C)[nH]c(=O)c(C(=O)O)c1O.Cl [Cpd 210, 6-(2-(((cyclopropylmethyl)(methyl)amino)methyl)-1-methyl-1H-indol-5-yl)-5-ethyl-4-hydroxy-2-oxo-1,2-dihydropyridine-3-carboxylic acid hydrochloride] | < 1 | 3.5 to 12.5 | < 1 | 3.5 to 12.5 | 12.5 to 150 | 3.5 to 12.5 | 1 to 3.5 | 3.5 to 12.5 | 12.5 to 150 | 12.5 to 150 | 12.5 to 150 | 1 to 3.5 | < 1 | < 1
9 | CCc1c(-c2ccc3c(c2)cc(CNCC2CC2)n3C)[nH]c(=O)c(C(=O)O)c1O.Cl [Cpd 223, 6-(2-((cyclopropylmethylamino)methyl)-1-methyl-1H-indol-5-yl)-5-ethyl-4-hydroxy-2-oxo-1,2-dihydropyridine-3-carboxylic acid hydrochloride] | < 1 | 3.5 to 12.5 | < 1 | 1 to 3.5 | 3.5 to 12.5 | 12.5 to 150 | < 1 | 3.5 to 12.5 | 1 to 3.5 | 12.5 to 150 | 3.5 to 12.5 | < 1 | < 1 | < 1
10 | CCc1c(-c2ccc3c(c2)cc(CNC2CC2)n3C)[nH]c(=O)c(C(=O)O)c1O.Cl [Cpd 228, 6-(2-((cyclopropylamino)methyl)-1-methyl-1H-indol-5-yl)-5-ethyl-4-hydroxy-2-oxo-1,2-dihydropyridine-3-carboxylic acid hydrochloride] | < 1 | 3.5 to 12.5 | < 1 | 1 to 3.5 | 3.5 to 12.5 | 1 to 3.5 | < 1 | 1 to 3.5 | 1 to 3.5 | 12.5 to 150 | 3.5 to 12.5 | < 1 | < 1 | < 1
11 | CCc1c(-c2ccc3c(c2)cc(CNC2CCCC2)n3C)[nH]c(=O)c(C(=O)O)c1O.Cl [Cpd 229, 6-(2-((cyclopentylamino)methyl)-1-methyl-1H-indol-5-yl)-5-ethyl-4-hydroxy-2-oxo-1,2-dihydropyridine-3-carboxylic acid hydrochloride] | < 1 | 3.5 to 12.5 | < 1 | 3.5 to 12.5 | 12.5 to 150 | 3.5 to 12.5 | < 1 | < 1 | 1 to 3.5 | 12.5 to 150 | 3.5 to 12.5 | < 1 | < 1 | < 1
12 | CCc1c(-c2ccc3c(c2)cc(CNCC2CCCN2CC)n3C)[nH]c(=O)c(C(=O)O)c1O.Cl.Cl (stereo not drawn) [Cpd 230, 5-ethyl-6-(2-(((1-ethylpyrrolidin-2-yl)methylamino)methyl)-1-methyl-1H-indol-5-yl)-4-hydroxy-2-oxo-1,2-dihydropyridine-3-carboxylic acid dihydrochloride] | < 1 | 12.5 to 150 | 3.5 to 12.5 | 3.5 to 12.5 | 12.5 to 150 | 12.5 to 150 | 12.5 to 150 | 1 to 3.5 | 12.5 to 150 | 12.5 to 150 | 12.5 to 150 | 3.5 to 12.5 | 3.5 to 12.5 | 1 to 3.5
